Results from US20230404972A1, “INHIBITION OF CASPASE PATHWAY AS A TREATMENT FOR LYSOSOMAL STORAGE DISORDERS” (Lysosomal and Rare Disorders Research and Treatment Center, …, priority 2020, published 2023).

Experiments:
[1] = system: Chitotriosidase; experiment: Chitotriosidase assay (4-Methylumbelliferone chitotrioside substrate) of PBMC cell culture supernatant; format: cell-based, human; conditions: PBMCs from LSD patients, 1 μM, 6 hr, with vs without treatment
[2] = molecular target: T1, Caspase 1 (Homo sapiens, UniProt P29466); experiment: Caspase-Glo 1 inflammasome assay in PBMCs from LSD patients; format: cell-based; conditions: 1 μM, 6 hr, vs untreated PBMCs
T1 construct: Caspase 1 activity within the PBMCs; endogenous in cells; host or cells: primary PBMCs from LSD patients
T1 sequence (P29466 120-297 limits assumed): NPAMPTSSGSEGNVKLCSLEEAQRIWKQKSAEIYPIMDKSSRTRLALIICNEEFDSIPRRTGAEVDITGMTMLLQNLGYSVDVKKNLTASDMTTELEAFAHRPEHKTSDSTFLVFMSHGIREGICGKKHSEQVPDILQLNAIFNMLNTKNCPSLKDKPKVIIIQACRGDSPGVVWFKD
T1 sequence (P29466 317-404 limits assumed): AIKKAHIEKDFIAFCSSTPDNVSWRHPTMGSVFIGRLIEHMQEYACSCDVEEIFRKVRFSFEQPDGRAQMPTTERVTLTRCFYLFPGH
Experimental: (§1) PBMCs are extracted from 3-5 ml peripheral blood using Ficoll-Paque (GE health care). 2-4 ml of whole blood is diluted 1:2 using Phosphate buffered saline (PBS) containing 2% fetal bovine serum (FBS) and overlayed onto Ficoll solution in 15 ml leucosep tube. The tubes are centrifuged at 2000 g for 10 minutes with no brakes. The layer containing PBMCs is transferred into a fresh 15 ml tube and washed with PBS+2% FBS. The cells are then resuspended in RPMI+10% FBS. The cells were then counted using heniocytometer and plated into 96 well plates and set at 37° C. incubator with 5% CO2.
The pan-caspase inhibitor, Emricasan (Sigma-Aldrich, Inc., St. Louis, MO, USA), was added to the PBMCs in 96-well plates to a final concentration of 1 μM. After 6 hr of Emricasan treatment, the cells were divided into two groups and used for 1) measurement of Caspase 1 activity within the PBMCs using Caspase-Glo 1 inflammasome assay (Promega, Madison, WI, USA), and 2) the supernatant was collected after centrifuging at 3000 rpm for 5 min to perform ELISA assays for cytokines: IL-1 beta and IL-18 as well as macrophage activation markers: Chitotriosidase and CCL18. […]
(§2) Caspase-1 mediated inflammasome cleaves pro-IL-1 beta and pro-IL-18 into active forms II-1 beta and IL-18 which are secreted from the cells. […] Relative decrease for each sample was calculated as relative to untreated PBMCs (FIG. 3A and 3B). […]

[3] = system: IL-18; experiment: IL-18 ELISA of PBMC cell culture supernatant; format: cell-based, human; conditions: PBMCs from LSD patients, 1 uM, 6 hr, relative to untreated PBMCs
Experimental: as §1, with “CO2. […]” for “CO2.”
(§3) Caspase-1, IL-1 beta and IL-18 were quantified as a measure of capase-1 activity. CCL18 and chitotriosidase were measured as to indicate macrophage activation and reflect clinical outcomes. ELISAs were performed as per manufacturer's protocols to quantify the following cytokines: 1) Caspase 1 (Therrnofisher Scientific, Waltham, MA, USA), 2) IL-1 beta, 3) IL-18 (Abcam, Cambridge, MA, USA), 4) CCL-18 cytokines-1 (Themofisher scientific, Waltham, MA, USA). […]
as §2

[4] = system: CCL18; experiment: CCL18 ELISA of PBMC cell culture supernatant; format: cell-based, human; conditions: PBMCs from LSD patients, 1 μM, 6 hr, with vs without treatment
[5] = system: IL-1 beta; experiment: IL-1 beta ELISA of PBMC cell culture supernatant; format: cell-based, human; conditions: PBMCs from LSD patients, 1 uM, 6 hr, relative to untreated PBMCs
Experimental: as §1, with “CO2. […]” for “CO2.”
as §3, §2

Caspase 1 activity within the PBMCs [2]: reduced
SMILES: C[C@H](NC(=O)C(=O)Nc1ccccc1C(C)(C)C)C(=O)N[C@@H](CC(=O)O)C(=O)COc1c(F)c(F)cc(F)c1F [Emricasan, (3S)-3-({N-[{[2-(2-Methyl-2-propanyl)phenyl]amino}(oxo)acetyl]alanyl}amino)-4-oxo-5-(2,3,5,6-tetrafluorophenoxy) pentanoic acid]
production of chitotriosidase (macrophage activation biomarker) in cell culture medium [1]: significant decrease
secreted IL-18 in the cell culture supernatant [3]: significant decrease
production of CCL18 (macrophage activation biomarker) in cell culture medium [4]: significant decrease
secreted IL-1 beta in the cell culture supernatant [5]: significant decrease
